From patent US20080125463A1, “N-(1-hetarylpiperidin-4-yl)(het)arylamides as EP2 receptor modulators” (priority 2006, published 2008)
Where two headings read alike, the source gives them in different places.

How the values were obtained:
[1] = target: T1, human prostaglandin E2 (subtype EP2) receptor (Homo sapiens, UniProt P43116); assay: cAMP antagonism assay (HTRF cAMP detection, in the presence of PGE2); type: cell-based
T1 construct: host or cells: cells in a cell culture plate
Protocol: (§1) The binding of PGE2 to the EP2 subtype of the human PGE2 receptor induces activation of membrane-associated adenylate cyclases and leads to the formation of cAMP. In the presence of the phosphodiesterase inhibitor IBMX, cAMP which has accumulated due to this stimulation and been released by cell lysis is employed in a competitive detection method. In this assay, the cAMP in the lysate competes with cAMP-XL665 for binding of an Eu cryptate-labeled anti-cAMP antibody.
(§2) The two signals are measured in a suitable measuring instrument with a time lag, i.e. after the background fluorescence has declined.
(§3) The substance solutions (0.75 μl) containing 30% DMSO are introduced into an assay plate and dissolved in 16 μl of a KRSB+IBMX stimulation solution (1× Krebs-Ringer Bicarbonate Buffer; Sigma-Aldrich #K-4002; including 750 μM 3-isobutyl-1-methylxanthine Sigma-Aldrich #I-7018), and then 15 μl thereof are transferred into a media-free cell culture plate which has been washed with KRSB shortly beforehand.
After preincubation at room temperature (RT) for 30 minutes, 5 μl of a 4×PGE2 solution (11 nM) are added, and incubation is carried out in the presence of the agonist at RT for a further 60 min (volume: ˜20 μl) before the reaction is then stopped by adding 5 μl of lysis buffer and incubated at RT for a further 20 min (volume: ˜25 μl). The cell lysate is then transferred into a measuring plate and measured in accordance with the manufacturer's information (cyclic AMP kit Cisbio International #62AMPPEC).

[2] = target: T1, human prostaglandin E2 (subtype EP2) receptor; assay: cAMP agonism assay (HTRF cAMP detection); type: cell-based
Protocol: as §1, §2, §3
After incubation at room temperature (RT; volume: ˜15 μl) for 60 minutes, the reaction is then stopped by adding 5 μl of lysis buffer and incubated at RT for a further 20 min (volume: ˜20 μl). The cell lysate is then transferred into a measuring plate and measured in accordance with the manufacturer's information (cyclic AMP kit Cisbio International #62AMPPEC).

cumulus-oocyte complexes = assay: Cumulus expansion assay in vitro; type: cell-based, mice; conditions: competing with PGE2
Protocol: Folliculogenesis is induced in immature female mice (strain: CD1 (ICR) from Charles River) at an age of 14-18 days by a single dose (intraperitoneally) of 10 I.U. of PMSG (Pregnant Mare Serum Gonadotropin; Sigma G-4877, Batch 68H0909). 47-50 hours after the injection, the ovaries are removed and the cumulus-oocyte complexes are removed. The cumulus complex is not yet expanded at this stage.
The cumulus-oocyte complexes are then incubated with prostaglandin E2 (PGE2) (1 μM), vehicle control (ethanol) or test substances for 20-24 hours. Medium: alpha-MEM medium with 0.1 mM IBMX, pyruvates (0.23 mM), glutamines (2 mM), pen/strep (100 IU/ml pen. and 100 μg/ml strep.) and HSA (8 mg/ml). Cumulus expansion is then established through the division into four stages (according to Vanderhyden et al. Dev Biol. 1990 August; 140(2):307-317).

[3] = cAMP antagonism assay, EP2 receptor, in presence of PGE2, read-out: Antagonism [IC50
[4] = cAMP agonism assay, EP2 receptor, read-out: Agonism [ED50

T1 sequence (P43116 whole entry): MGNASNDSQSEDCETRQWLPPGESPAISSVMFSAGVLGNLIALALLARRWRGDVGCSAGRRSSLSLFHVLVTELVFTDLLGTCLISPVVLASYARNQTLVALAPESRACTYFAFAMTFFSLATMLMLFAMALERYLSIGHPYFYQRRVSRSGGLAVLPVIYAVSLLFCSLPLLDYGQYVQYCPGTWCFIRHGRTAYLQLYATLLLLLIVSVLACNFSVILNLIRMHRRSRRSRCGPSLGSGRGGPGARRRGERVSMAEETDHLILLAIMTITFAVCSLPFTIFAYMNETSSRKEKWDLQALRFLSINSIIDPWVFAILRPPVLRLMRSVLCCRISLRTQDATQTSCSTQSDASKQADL

SMILES	IC50 [1, 3] [µM]	EC50 [2, 4] [µM]	also measured
O=C(NC1CCN(c2ccnc3cc(Cl)ccc23)CC1)c1cccc(Cl)c1Cl [Example 25, 2,3-Dichloro-N-[1-(7-chloro-quinolin-4-yl)-piperidin-4-yl)-benzamide]		> 19	IC50 ([1]; antagonism test, read-out: IC50 in the antagonism test): 0.2 µM; EC50 ([2]; cellular agonism test, read-out: EC50 in the cellular agonism test): > 19 µM; suppression of cumulus expansion (cumulus-oocyte complexes; one tenth of the concentration (of 100-200 μM)): ~50%
O=C(NC1CCN(c2ccnc3cc(Cl)ccc23)CC1)c1ccccc1Cl [Example 4, 2-Chloro-N-[1-(7-chloro-quinolin-4-yl)-piperidin-4-yl]-benzamide]	1	> 19	
O=C(NC1CCN(c2ccnc3cc(Cl)ccc23)CC1)c1ccc(F)c(F)c1F [Example 20, N-[1-(7-Chloro-quinolin-4-yl)-piperidin-4-yl]-2,3,4-trifluoro-benzamide]	1.6	> 19	
O=C(NC1CCN(c2ccnc3cc(Cl)ccc23)CC1)c1ccccc1I [Example 10, N-[1-(7-Chloro-quinolin-4-yl)-piperidin-4-yl]-2-iodo-benzamide]	1.3		
CC(C)Oc1ccc2c(=O)c3cc(C(=O)O)ccc3oc2c1 [AH 6809, reference compound]			suppression of cumulus expansion (cumulus-oocyte complexes; concentration of 100-200 μM): about 20%
O=C(NC1CCN(c2ccnc3cc(Cl)ccc23)CC1)c1ccc([N+](=O)[O-])o1 [Example 26, 5-Nitro-furan-2-carboxylic acid [1-(7-chloro-quinolin-4-yl)-piperidin-4-yl]-amide]	2	> 19	

Continued by falling IC50 [1, 3], values first:

IC50 [1, 3] [µM]	EC50 [2, 4] [µM]	SMILES	also measured
0.9	> 19	N#Cc1ccc2c(N3CCC(NC(=O)c4cccc(Cl)c4Cl)CC3)ccnc2c1 [Example 40, 2,3-Dichloro-N-[1-(7-cyano-quinolin-4-yl)-piperidin-4-yl]-benzamide]	
0.6	> 19	O=C(NC1CCN(c2ccnc3cc(Cl)ccc23)CC1)c1ccccc1Br [Example 1, 2-Bromo-N-[1-(7-chloro-quinolin-4-yl)-piperidin-4-yl]-benzamide]	
0.6	> 19	O=C(NC1CCN(c2ncnc3cc(Cl)ccc23)CC1)c1cccc(Cl)c1Cl [Example 37, 2,3-Dichloro-N-[1-(7-chloro-quinazolin-4-yl)-piperidin-4-yl]-benzamide]	
0.2	> 19	O=C(NC1CCN(c2ccnc3cc(C(F)(F)F)ccc23)CC1)c1cccc(Cl)c1Cl [Example 34, 2,3-Dichloro-N-[1-(7-trifluoromethyl-quinolin-4-yl)-piperidin-4-yl]-benzamide]	
0.1	> 19	O=C(NC1CCN(c2ccnc3cc(Br)ccc23)CC1)c1cccc(Cl)c1Cl [Example 36, N-[1-(7-Bromo-quinolin-4-yl)-piperidin-4-yl]-2,3-dichloro-benzamide]	
0.1	> 19	O=C(NC1CCN(c2ccnc3c(Cl)cccc23)CC1)c1cccc(Cl)c1Cl [Example 35, 2,3-Dichloro-N-[1-(8-chloro-quinolin-4-yl)-piperidin-4-yl]-benzamide]	
